The test system of assay [1] is Cat flea Ctenocephalides felis. The experiment in a line: Example B1: activity against fleas on dogs in a contaminated environment, oral tablets. It is filed as in vivo. The text has this: Comparison Between the Activity of Lufenuron Alone and the Combination of Nitenpyran and Lufenuron Against Dog Fleas in a Contaminated Environment Corresponding to Actual Conditions.
In the study, conditions existing in the household were simulated. To this end, 4 isolated and clinically clean rooms were used. They contained a sleeping area laid out with straw and a small run to the outside. The rooms were subjected to natural light conditions. […] Subsequently, each group of dogs underwent different treatment.
Control group 1 was given no active ingredient, but only a placebo and served as the reference group. Group 2 was given lufenuron in a monthly dosage in accordance with the instructions on the packet and once a week was given a placebo. Group 3 was given lufenuron in a monthly dosage in accordance with the instructions on the packet, and once a week was additionally given nitenpyram for a period of 6 weeks. Group 4 was given lufenuron in a monthly dosage in accordance with the instructions on the packet, and twice a week was additionally given nitenpyram for a period of 6 weeks.
In all four groups, the flea population was determined by counting them twice weekly before the first treatment and once weekly during treatment.
The activity of the test substances was determined under simulated household conditions in accordance with the following formula: [formula]

A further assay has as its system fleas. Conditions: in vitro test, cited from earlier work.
Assay [2] deals with fleas present on the cats. The note with it: cited from earlier work.

Data on two molecules can be found in patent US20020058683A1, “Oral combination of lufenuron and nitenpyram against fleas” (priority 1998, published 2002).

As for `CCN(Cc1ccc(Cl)nc1)/C(=C/[N+](=O)[O-])NC` [nitenpyram, (E)-N-(6-chloro-pyridin-3-ylmethyl)-N-ethyl-N′-methyl-2-nitrovinylidenediamine], the “time within which all the fleas except one died” value in assay [1] (after the first administration of nitenpyram) was 16 to 24 days. In addition, in the assay on fleas (after 24 hours), the activity was 100%. Further, the “time to first, substantial activity” value in the assay with fleas (after feeding contaminated blood to fleas) was 30 min. In addition, in assay [2] (6 hours after oral administration to cats), the “activity against the fleas present on the cats” value was 60%. For the same molecule, the activity against fleas in assay [2] (cats, oral, on the second day after renewed infestation) is 55%.

With `O=C(NC(=O)c1c(F)cccc1F)Nc1cc(Cl)c(OC(F)(F)C(F)C(F)(F)F)cc1Cl` (racemic) [lufenuron, (R,S)-1-[2,5-dichloro-4-(1,1,2,2,3,3,3-hexafluoropropoxy)-phenyl]-3-(2,6-difluorobenzoyl)urea], the “Activity (% relative to control)” value in assay [1] (days 0-28 after first treatment, monthly lufenuron only (Group 2)) was 25.4%; in assay [1] (days 29-56, monthly lufenuron only (Group 2)), 78.6%; in assay [1] (days 57-84, monthly lufenuron only (Group 2)), 72.1%; in assay [1] (days 85-112, monthly lufenuron only (Group 2)), 94.3%. In addition, in assay [1] (group 2, treated solely with lufenuron), the “time until activity achieved a satisfactory level for practical usage” value is “ca. 84 days”.
